Patent US20260337583A1, “CYTOCHROME P450 ENZYME, NUCLEIC ACID MOLECULE, AND GLYCYRRHETINIC ACID DERIVATIVE AND USE THEREOF” (CHINA PHARMACEUTICAL UNIVERSITY, priority 2023, published 2026)
Like-named read-outs stand apart in the source and are kept apart here.

Legend:
[1] = test system: Human hepatocellular carcinoma cells (HepG2); experiment: CCK-8 tumor cell growth inhibition, HepG2; assay type: cell-based; details: for IC50: Homo sapiens, HepG2, 48 h co-incubation, CCK-8, read-out: IC50 against HepG2
Description: (§1) Human hepatocellular carcinoma cells (HepG2) and human colon cancer cells (SW480) were cultured in a complete culture medium consisting of high-glucose DMEM supplemented with 10% (v/v) heat-inactivated fetal bovine serum, 100 U/mL of penicillin, and […] of streptomycin. All cells used in the experiments were cultured in an incubator at 37° C. with 5% CO2 saturated humidity.
(§2) All compounds were dissolved in DMSO to prepare 20 mM compound stock solutions. • 10 μL of the compound stock solution was added to 1 mL of the complete culture medium to prepare a 200 μM compound solution; • 4 μL of the compound stock solution was added to 1 mL of the complete culture medium to prepare a 80 μM compound solution; • 0.5 mL of the 80 μM compound solution was added to 0.5 mL of the complete culture medium to prepare a 40 μM compound solution; • 0.5 mL of the 40 μM compound solution was added to 0.5 mL of the complete culture medium to prepare a 20 μM compound solution; • 0.5 mL of the 20 μM compound solution was added to 0.5 mL of the complete culture medium to prepare a 10 μM compound solution; • 0.5 mL of the 10 μM compound solution was added to 0.5 mL of the complete culture medium to prepare a 5 μM compound solution;
(§3) The inhibitory effects of the compounds on tumor cell growth were evaluated using a CCK-8 assay. A cell suspension at a predetermined density (5× 10^4/mL cells/mL) was seeded into a 96-well plate. Outermost 36 wells of the 96-well plate were filled with 200 μL of PBS buffer (0.01 M, pH 7.4), while inner 60 wells thereof were used as a drug group, a blank group, and a negative control group. Each group was tested in triplicate.
(§4) Drug group: 100 μL of the cell suspension was added to each well and incubated for 24 h, and 100 μL of the 80 μM compound solution (100 μL of the 200 μM solution was added to Compound 1) was added for co-incubating for another 48 h; 20 μL of CCK-8 solution was added to each well, followed by incubation for another 2 h; and absorbance at 450 nm was measured with a microplate reader.
(§5) Blank group: 100 μL of the complete culture medium was added to each well and incubated for 24 h, and 100 μL of the complete culture medium was then added for co-incubating for another 48 h; 20 μL of CCK-8 solution was added to each well, followed by incubation for another 2 h; and absorbance at 450 nm was measured with a microplate reader.
(§6) Negative control group: 100 μL of the cell suspension was added to each well and incubated for 24 h, and 100 μL of the complete culture medium containing 0.4 μL of DMSO was then added for co-incubating for another 48 h; 20 μL of CCK-8 solution was added to each well, followed by incubation for another 2 h; and absorbance at 450 nm was measured with a microplate reader.
(§7) The cell growth inhibitory ratio (IR) was calculated according to the following formulas:
(§8) [formula] • IR: Inhibitory Ratio • ODpositive: absorbance of the drug group • ODblank: absorbance of the blank group • ODnegative: absorbance of the negative control group
(§9) Each concentration was tested in triplicate. Based on the tumor cell inhibitory ratios at different concentrations, the IC50 was calculated using GraphPad Prism 9.

[2] = test system: human colon cancer cells (SW480); experiment: CCK-8 tumor cell growth inhibition, SW480; assay type: cell-based; details: for IC50: Homo sapiens, SW480, 48 h co-incubation, CCK-8, read-out: IC50 against SW480; for activity against human colon cancer cells compared with the parent compound 1 (glycyrrhetinic acid): relative to parent compound 1
Description: as §1, §2, §3, §4, §5, §6, §7, §8, §9

CYP161H12 [3] = molecular target: T1, CYP161H12 (Amycolatopsis pretoriensis, UniProt A0A1H5RFX8); experiment: CYP161H12 catalytic activity on different substrates (cell-free CYP161H12-RHFRed/opt13 conversion, liquid chromatography); details: role: substrate; 2 mM substrate, 0.5 equiv. NADP+, 50 equiv. Na2HPO3·5H2O, 5% DMSO, pH 7.0, 23° C., 20 h; enzyme 3.68×10^−3 mM
T1 sequence (A0A1H5RFX8 1-404): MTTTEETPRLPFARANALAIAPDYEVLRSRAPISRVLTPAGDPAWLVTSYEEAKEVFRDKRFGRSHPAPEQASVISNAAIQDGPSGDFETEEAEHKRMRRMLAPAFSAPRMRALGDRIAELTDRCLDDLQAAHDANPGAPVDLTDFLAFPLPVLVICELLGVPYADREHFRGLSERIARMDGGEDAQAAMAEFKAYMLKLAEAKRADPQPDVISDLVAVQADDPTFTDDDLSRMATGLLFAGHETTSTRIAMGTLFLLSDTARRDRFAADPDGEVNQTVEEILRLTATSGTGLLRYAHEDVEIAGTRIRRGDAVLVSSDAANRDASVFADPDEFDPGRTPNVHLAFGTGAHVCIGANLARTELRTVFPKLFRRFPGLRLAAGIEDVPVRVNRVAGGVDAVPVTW

CYP161H12 [4] = molecular target: T1, CYP161H12

SMILES | IC50 [1] | IC50 [2] | further results
CC1(C)[C@@H](O)CC[C@]2(C)[C@H]3C(=O)C=C4[C@@H]5C[C@@](C)(C(=O)O)CC[C@]5(C)CC[C@@]4(C)[C@]3(C)CC[C@@H]12 [Compound 1, glycyrrhetinic acid] | > 100 µM | > 100 µM | yield of Substrate catalyzed by CYP161H12 (CYP161H12 [3]): 100%
CC1(C)[C@@H](O)CC[C@]2(C)[C@H]3C(=O)C=C4[C@@H]5C[C@@](C)(C(=O)O)CC[C@]5(C)CC[C@@]4(C)[C@]3(C)[C@@H](O)C[C@@H]12 [Compound 1a] | > 40 µM | > 40 µM | –
CC1(C)[C@@H](O)CC[C@]2(C)[C@H]3C(=O)C=C4[C@@H]5C[C@@](C)(C(=O)O)CC[C@]5(C)C[C@H](O)[C@@]4(C)[C@]3(C)[C@@H](O)C[C@@H]12 [Compound 1b] | > 40 µM | > 40 µM | –
CC(=O)O[C@H]1CC[C@]2(C)[C@H]3C(=O)C=C4[C@@H]5C[C@@](C)(C(=O)O)CC[C@]5(C)CC[C@@]4(C)[C@]3(C)[C@@H](O)C[C@H]2C1(C)C [Compound 2a] | > 40 µM | > 40 µM | –
CC(=O)O[C@H]1CC[C@]2(C)[C@H]3C(=O)C=C4[C@@H]5C[C@@](C)(C(=O)O)CC[C@]5(C)C[C@H](O)[C@@]4(C)[C@]3(C)[C@@H](O)C[C@H]2C1(C)C [Compound 2b] | > 40 µM | > 40 µM | –
CCC(=O)O[C@H]1CC[C@]2(C)[C@H]3C(=O)C=C4[C@@H]5C[C@@](C)(C(=O)O)CC[C@]5(C)CC[C@@]4(C)[C@]3(C)[C@@H](O)C[C@H]2C1(C)C [Compound 3a] | > 40 µM | > 40 µM | –
CCCC(=O)O[C@H]1CC[C@]2(C)[C@H]3C(=O)C=C4[C@@H]5C[C@@](C)(C(=O)O)CC[C@]5(C)CC[C@@]4(C)[C@]3(C)[C@@H](O)C[C@H]2C1(C)C [Compound 4a] | > 40 µM | > 40 µM | –
CC1(C)C(=O)CC[C@]2(C)[C@H]3C(=O)C=C4[C@@H]5C[C@@](C)(C(=O)O)CC[C@]5(C)CC[C@@]4(C)[C@]3(C)[C@@H](O)C[C@@H]12 [Compound 5a] | > 40 µM | > 40 µM | –
CC1(C)C(=O)CC[C@]2(C)[C@H]3C(=O)C=C4[C@@H]5C[C@@](C)(C(=O)O)CC[C@]5(C)C[C@H](O)[C@@]4(C)[C@]3(C)[C@@H](O)C[C@@H]12 [Compound 5b] | > 40 µM | > 40 µM | –
CC1(C)C(=O)C=C[C@]2(C)[C@H]3C(=O)C=C4[C@@H]5C[C@@](C)(C(=O)O)CC[C@]5(C)CC[C@@]4(C)[C@]3(C)[C@@H](O)C[C@@H]12 [Compound 6a] | > 40 µM | > 40 µM | –
CC1(C)C(=O)C=C[C@]2(C)[C@H]3C(=O)C=C4[C@@H]5C[C@@](C)(C(=O)O)CC[C@]5(C)C[C@H](O)[C@@]4(C)[C@]3(C)[C@@H](O)C[C@@H]12 [Compound 6b] | > 40 µM | > 40 µM | –
CC1(C)OC(=O)CC[C@]2(C)[C@H]3C(=O)C=C4[C@@H]5C[C@@](C)(C(=O)O)CC[C@]5(C)CC[C@@]4(C)[C@]3(C)[C@@H](O)C[C@@H]12 [Compound 7a] | > 40 µM | > 40 µM | –
CC1(C)OC(=O)CC[C@]2(C)[C@H]3C(=O)C=C4[C@@H]5C[C@@](C)(C(=O)O)CC[C@]5(C)C[C@H](O)[C@@]4(C)[C@]3(C)[C@@H](O)C[C@@H]12 [Compound 7b] | > 40 µM | > 40 µM | –
CC1(C)c2oncc2C[C@]2(C)[C@H]3C(=O)C=C4[C@@H]5C[C@@](C)(C(=O)O)CC[C@]5(C)CC[C@@]4(C)[C@]3(C)[C@@H](O)C[C@@H]12 [Compound 8a] | > 40 µM | > 40 µM | –
CC1(C)c2oncc2C[C@]2(C)[C@H]3C(=O)C=C4[C@@H]5C[C@@](C)(C(=O)O)CC[C@]5(C)C[C@H](O)[C@@]4(C)[C@]3(C)[C@@H](O)C[C@@H]12 [Compound 8b] | > 40 µM | > 40 µM | –
COC(=O)[C@@]1(C)CC[C@]2(C)CCC3(C)C(=CC(=O)[C@@H]4[C@@]5(C)CC[C@H](O)C(C)(C)[C@@H]5C[C@H](O)[C@]43C)[C@@H]2C1 (some centres unmarked) [Compound 9a] | > 40 µM | > 40 µM | –
COC(=O)[C@@]1(C)CC[C@]2(C)C[C@H](O)[C@]3(C)C(=CC(=O)[C@@H]4[C@@]5(C)CC[C@H](O)C(C)(C)[C@@H]5C[C@H](O)[C@]43C)[C@@H]2C1 [Compound 9b] | > 40 µM | > 40 µM | –
C=CCCCCOC(=O)[C@@]1(C)CC[C@]2(C)CC[C@]3(C)C(=CC(=O)[C@@H]4[C@@]5(C)CC[C@H](O)C(C)(C)[C@@H]5C[C@H](O)[C@]43C)[C@@H]2C1 [Compound 10a] | > 40 µM | 39.2 ± 2.34 µM | activity against human colon cancer cells compared with the parent compound 1 (glycyrrhetinic acid) [2]: more than twice the activity
C=CCCCCOC(=O)[C@@]1(C)CC[C@]2(C)C[C@H](O)[C@]3(C)C(=CC(=O)[C@@H]4[C@@]5(C)CC[C@H](O)C(C)(C)[C@@H]5C[C@H](O)[C@]43C)[C@@H]2C1 [Compound 10b] | 38.6 ± 0.54 µM | 32 ± 3.36 µM | activity against human liver cancer cells compared with the parent compound 1 (glycyrrhetinic acid) ([1]; relative to parent compound 1): more than twice the activity; activity against human colon cancer cells compared with the parent compound 1 (glycyrrhetinic acid) [2]: more than twice the activity
CC(=O)O[C@H]1CC[C@]2(C)[C@H]3C(=O)C=C4[C@@H]5C[C@@](C)(C(=O)O)CC[C@]5(C)CC[C@@]4(C)[C@]3(C)CC[C@H]2C1(C)C [Substrate 2, 3-acetyl-glycyrrhetinic acid] | – | – | yield of Substrate catalyzed by CYP161H12 (CYP161H12 [3]): 92%
CCC(=O)O[C@H]1CC[C@]2(C)[C@H]3C(=O)C=C4[C@@H]5C[C@@](C)(C(=O)O)CC[C@]5(C)CC[C@@]4(C)[C@]3(C)CC[C@H]2C1(C)C [Substrate 3, 3-propionyl-glycyrrhetinic acid] | – | – | yield of Substrate catalyzed by CYP161H12 (CYP161H12 [3]): 61%
CCCC(=O)O[C@H]1CC[C@]2(C)[C@H]3C(=O)C=C4[C@@H]5C[C@@](C)(C(=O)O)CC[C@]5(C)CC[C@@]4(C)[C@]3(C)CC[C@H]2C1(C)C [Substrate 4, 3-butyryl-glycyrrhetinic acid] | – | – | yield of Substrate catalyzed by CYP161H12 (CYP161H12 [3]): 23%
CC1(C)C(=O)CC[C@]2(C)[C@H]3C(=O)C=C4[C@@H]5C[C@@](C)(C(=O)O)CC[C@]5(C)CC[C@@]4(C)[C@]3(C)CC[C@@H]12 [Substrate 5, 3-oxo-glycyrrhetinic acid] | – | – | ratio of hydroxylated products a:b (CYP161H12 [4]): 76:24; yield of Substrate catalyzed by CYP161H12 (CYP161H12 [4]; pH 7): 87%
CC1(C)C(=O)C=C[C@]2(C)[C@H]3C(=O)C=C4[C@@H]5C[C@@](C)(C(=O)O)CC[C@]5(C)CC[C@@]4(C)[C@]3(C)CC[C@@H]12 [Substrate 6, 3-oxo-1-ene-glycyrrhetinic acid] | – | – | yield of Substrate catalyzed by CYP161H12 (CYP161H12 [3]): 81%
CC1(C)OC(=O)CC[C@]2(C)[C@H]3C(=O)C=C4[C@@H]5C[C@@](C)(C(=O)O)CC[C@]5(C)CC[C@@]4(C)[C@]3(C)CC[C@@H]12 [Substrate 7] | – | – | yield of Substrate catalyzed by CYP161H12 (CYP161H12 [3]): 87%
CC1(C)c2oncc2C[C@]2(C)[C@H]3C(=O)C=C4[C@H]5C[C@@](C)(C(=O)O)CC[C@]5(C)CC[C@@]4(C)[C@]3(C)CC[C@@H]12 [Substrate 8] | – | – | yield of Substrate catalyzed by CYP161H12 (CYP161H12 [3]): 97%
